Experimental data taken from ChEMBL document CHEMBL3885881, “DrugMatrix”.

Species on record: Rattus norvegicus
Experiment: DrugMatrix - Regimen: Daily Repeat
Type: toxicity, organism-based, Sprague-Dawley
Design: regimen Daily Repeat, gender Male, age 6-8 weeks
Conditions: in vivo, po, route oral GAVAGE, vehicle 100 % SALINE; for ABSOLUTE BASOPHIL / ABSOLUTE EOSINOPHIL / ABSOLUTE LYMPHOCYTE / ABSOLUTE MONOCYTE / ABSOLUTE SEGMENTED NEUTROPHIL / BASOPHIL / EOSINOPHIL / ERYTHROCYTE COUNT / HEMATOCRIT / HEMOGLOBIN / LEUKOCYTE COUNT / LYMPHOCYTE / MEAN CORPUSCULAR HEMOGLOBIN / MEAN CORPUSCULAR HEMOGLOBIN CONCENTRATION / MONOCYTE / NEUTROPHIL / NUCLEATED RED BLOOD CELLS / PLATELET COUNT: tissue Blood; for ALANINE AMINOTRANSFERASE / ALBUMIN / ALKALINE PHOSPHATASE / ASPARTATE AMINOTRANSFERASE / BLOOD UREA NITROGEN / CARBON DIOXIDE / CHOLESTEROL / CREATINE PHOSPHOKINASE / CREATININE / GLUCOSE / LACTATE DEHYDROGENASE / LIPASE / POTASSIUM / SODIUM / TOTAL BILIRUBIN / TOTAL PROTEIN / URIC ACID: tissue Plasma
[1] = 330 mg/kg, 120 h, dose level Low, time 5 day
[2] = 980 mg/kg, 72 h, dose level High, time 3 day
[3] = 980 mg/kg, 120 h, dose level High, time 5 day

## Nc1nc2c(ncn2COCCO)c(=O)[nH]1 [ACYCLOVIR]
[1]
  ABSOLUTE BASOPHIL: 0 CELLS/uL
  ABSOLUTE EOSINOPHIL: 23.33 CELLS/uL
  ABSOLUTE LYMPHOCYTE: 6827.33 CELLS/uL
  ABSOLUTE MONOCYTE: 23.33 CELLS/uL
  ABSOLUTE SEGMENTED NEUTROPHIL: 459.33 CELLS/uL
  BASOPHIL: 0%
  EOSINOPHIL: 0.33%
  ERYTHROCYTE COUNT: 5.77 x10E6/uL
  HEMATOCRIT: 36%
  HEMOGLOBIN: 13.93 G/DL
  LEUKOCYTE COUNT: 7.33 x10E3/uL
  LYMPHOCYTE: 92.67%
  MEAN CORPUSCULAR HEMOGLOBIN: 24.17 pg
  MEAN CORPUSCULAR HEMOGLOBIN CONCENTRATION: 38.7 G/DL
  MONOCYTE: 0.33%
  NEUTROPHIL: 6.67%
  NUCLEATED RED BLOOD CELLS: 0 /100WBC
  PLATELET COUNT: 980.67 x10E3/uL
  ALANINE AMINOTRANSFERASE: 54 u/L
  ALBUMIN: 4.1 G/DL
  ALKALINE PHOSPHATASE: 310 u/L
  ASPARTATE AMINOTRANSFERASE: 89.33 u/L
  BLOOD UREA NITROGEN: 14 mg/dL
  CARBON DIOXIDE: 31 mmol/L
  CHOLESTEROL: 71.33 mg/dL
  CREATINE PHOSPHOKINASE: 331 u/L
  CREATININE: 0.35 mg/dL
  GLUCOSE: 149.67 mg/dL
  LACTATE DEHYDROGENASE: 119.33 u/L
  LIPASE: 11.67 u/L
  POTASSIUM: 6.3 MEQ/L
  SODIUM: 145.23 MEQ/L
  TOTAL BILIRUBIN: 0.17 mg/dL
  TOTAL PROTEIN: 5.87 G/DL
  URIC ACID: 0.97 mg/dL
[2]
  ABSOLUTE BASOPHIL: 0 CELLS/uL
  ABSOLUTE EOSINOPHIL: 28.33 CELLS/uL
  ABSOLUTE LYMPHOCYTE: 6898 CELLS/uL
  ABSOLUTE MONOCYTE: 45.67 CELLS/uL
  ABSOLUTE SEGMENTED NEUTROPHIL: 428 CELLS/uL
  BASOPHIL: 0%
  EOSINOPHIL: 0.33%
  ERYTHROCYTE COUNT: 5.27 x10E6/uL
  HEMATOCRIT: 32.97%
  HEMOGLOBIN: 12.8 G/DL
  LEUKOCYTE COUNT: 7.4 x10E3/uL
  LYMPHOCYTE: 93%
  MEAN CORPUSCULAR HEMOGLOBIN: 24.37 pg
  MEAN CORPUSCULAR HEMOGLOBIN CONCENTRATION: 38.87 G/DL
  MONOCYTE: 0.67%
  NEUTROPHIL: 6%
  NUCLEATED RED BLOOD CELLS: 0 /100WBC
  PLATELET COUNT: 1125.67 x10E3/uL
  ALANINE AMINOTRANSFERASE: 47.33 u/L
  ALBUMIN: 4.07 G/DL
  ALKALINE PHOSPHATASE: 321 u/L
  ASPARTATE AMINOTRANSFERASE: 79.33 u/L
  BLOOD UREA NITROGEN: 12.67 mg/dL
  CARBON DIOXIDE: 28.33 mmol/L
  CHOLESTEROL: 67.33 mg/dL
  CREATINE PHOSPHOKINASE: 458 u/L
  CREATININE: 0.23 mg/dL
  GLUCOSE: 154 mg/dL
  LACTATE DEHYDROGENASE: 123 u/L
  LIPASE: 9.67 u/L
  POTASSIUM: 5.85 MEQ/L
  SODIUM: 142.43 MEQ/L
  TOTAL BILIRUBIN: 0.17 mg/dL
  TOTAL PROTEIN: 5.77 G/DL
  URIC ACID: 0.9 mg/dL
[3]
  ABSOLUTE BASOPHIL: 0 CELLS/uL
  ABSOLUTE EOSINOPHIL: 32 CELLS/uL
  ABSOLUTE LYMPHOCYTE: 9269.33 CELLS/uL
  ABSOLUTE MONOCYTE: 115 CELLS/uL
  ABSOLUTE SEGMENTED NEUTROPHIL: 383.67 CELLS/uL
  BASOPHIL: 0%
  EOSINOPHIL: 0.33%
  ERYTHROCYTE COUNT: 5.83 x10E6/uL
  HEMATOCRIT: 35.13%
  HEMOGLOBIN: 13.9 G/DL
  LEUKOCYTE COUNT: 9.8 x10E3/uL
  LYMPHOCYTE: 94.33%
  MEAN CORPUSCULAR HEMOGLOBIN: 23.83 pg
  MEAN CORPUSCULAR HEMOGLOBIN CONCENTRATION: 39.6 G/DL
  MONOCYTE: 1.33%
  NEUTROPHIL: 4%
  NUCLEATED RED BLOOD CELLS: 0.33 /100WBC
  PLATELET COUNT: 783 x10E3/uL
  ALANINE AMINOTRANSFERASE: 46.67 u/L
  ALBUMIN: 4.17 G/DL
  ALKALINE PHOSPHATASE: 320.33 u/L
  ASPARTATE AMINOTRANSFERASE: 74 u/L
  BLOOD UREA NITROGEN: 15.67 mg/dL
  CARBON DIOXIDE: 29.33 mmol/L
  CHOLESTEROL: 57.67 mg/dL
  CREATINE PHOSPHOKINASE: 253.33 u/L
  CREATININE: 0.44 mg/dL
  GLUCOSE: 155.67 mg/dL
  LACTATE DEHYDROGENASE: 135.67 u/L
  LIPASE: 12 u/L
  POTASSIUM: 5.65 MEQ/L
  SODIUM: 145.17 MEQ/L
  TOTAL BILIRUBIN: 0.17 mg/dL
  TOTAL PROTEIN: 5.83 G/DL
  URIC ACID: 0.83 mg/dL
